Laboratory results reported in patent US20230085307A1, “PYRIDAZINONE COMPOUND AND HERBICIDE” (NISSAN CHEMICAL CORPORATION, priority 2019, published 2023).

Assays:
barnyard grass [1] = experiment: Test Example 3: herbicidal effect by foliage application, Wagner pot (Table 18, symbol H); format: in vivo, barnyard grass (Echinochloa crus-galli); settings: 80 g/ha
How it was run: (§1)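 Plants were sown in alluvial soil held under 0.1–0.5 cm standing water and grown 14 days in a greenhouse at 25–30 °C. An emulsifiable formulation, water-diluted to the set dose, was then sprayed onto the foliage, and effects were scored three weeks later using previously defined criteria.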

Chinese sprangletop = experiment: Test Example 3: herbicidal effect by foliage application, Wagner pot (Table 18, symbol D); format: in vivo, chinese sprangletop (Leptochloa chinensis); settings: 80 g/ha
How it was run: as §1

rice flat sedge = experiment: Test Example 3: herbicidal effect by foliage application, Wagner pot (Table 18, symbol E); format: in vivo, rice flat sedge (Cyperus iria); settings: 80 g/ha
How it was run: as §1

southern crabgrass [2] = experiment: Test Example 4: herbicidal effect by soil treatment (Table 19, symbol F); format: in vivo, southern crabgrass (Digitaria ciliaris); settings: AAH 80 g/ha
How it was run: (§2)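 Pre-emergence style soil spray: seeds under ~1.5 cm sterilized diluvial soil received a uniform coat of emulsion diluted to the predetermined herbicide amount. Greenhouse 25–30° C; readout at week three on previously defined criteria.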

green foxtail [3] = experiment: Test Example 4: herbicidal effect by soil treatment (Table 19, symbol G); format: in vivo, green foxtail (Setaria viridis); settings: AAH 80 g/ha
How it was run: as §2

barnyard grass [4] = experiment: Test Example 4: herbicidal effect by soil treatment (Table 19, symbol H); format: in vivo, barnyard grass (Echinochloa crus-galli); settings: AAH 80 g/ha
How it was run: as §2

wild oat [5] = experiment: Test Example 4: herbicidal effect by soil treatment (Table 19, symbol I); format: in vivo, wild oat (Avena fatua); settings: AAH 80 g/ha
How it was run: as §2

blackgrass [6] = experiment: Test Example 4: herbicidal effect by soil treatment (Table 19, symbol J); format: in vivo, blackgrass (Alopecurus myosuroides); settings: AAH 80 g/ha
How it was run: as §2

Italian ryegrass [7] = experiment: Test Example 4: herbicidal effect by soil treatment (Table 19, symbol K); format: in vivo, Italian ryegrass (Lolium multiflorum); settings: AAH 80 g/ha
How it was run: as §2

windgrass [8] = experiment: Test Example 4: herbicidal effect by soil treatment (Table 19, symbol L); format: in vivo, windgrass (Apera spica-venti); settings: AAH 80 g/ha
How it was run: as §2

velvetleaf [9] = experiment: Test Example 4: herbicidal effect by soil treatment (Table 19, symbol M); format: in vivo, velvetleaf (Abutilon theophrasti); settings: AAH 80 g/ha
How it was run: as §2

redroot pigweed [10] = experiment: Test Example 4: herbicidal effect by soil treatment (Table 19, symbol N); format: in vivo, redroot pigweed (Amaranthus retroflexus); settings: AAH 80 g/ha
How it was run: as §2

lambsquarters [11] = experiment: Test Example 4: herbicidal effect by soil treatment (Table 19, symbol O); format: in vivo, lambsquarters (Chenopodium album); settings: AAH 80 g/ha
How it was run: as §2

chickweed [12] = experiment: Test Example 4: herbicidal effect by soil treatment (Table 19, symbol P); format: in vivo, common chickweed (Stellaria media); settings: AAH 80 g/ha
How it was run: as §2

persian speedwell [13] = experiment: Test Example 4: herbicidal effect by soil treatment (Table 19, symbol R); format: in vivo, Persian speedwell (Veronica persica); settings: AAH 80 g/ha
How it was run: as §2

southern crabgrass [14] = experiment: Test Example 5: herbicidal effect by foliage application, plastic box (Table 20, symbol F); format: in vivo, southern crabgrass (Digitaria ciliaris); settings: foliage application, AAH 80 g/ha, three weeks after application
How it was run: (§3)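 Plants were sown into sterilized diluvial soil under about 1.5 cm cover and kept in a greenhouse at 25° C. to 30° C. Fourteen days on, foliage received an even spray of the diluted emulsion. Herbicidal or crop effect was judged three weeks afterwards.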

green foxtail [15] = experiment: Test Example 5: herbicidal effect by foliage application, plastic box (Table 20, symbol G); format: in vivo, green foxtail (Setaria viridis); settings: foliage application, AAH 80 g/ha, three weeks after application
How it was run: as §3

barnyard grass [16] = experiment: Test Example 5: herbicidal effect by foliage application, plastic box (Table 20, symbol H); format: in vivo, barnyard grass (Echinochloa crus-galli); settings: foliage application, AAH 80 g/ha, three weeks after application
How it was run: as §3

wild oat [17] = experiment: Test Example 5: herbicidal effect by foliage application, plastic box (Table 20, symbol I); format: in vivo, wild oat (Avena fatua); settings: foliage application, AAH 80 g/ha, three weeks after application
How it was run: as §3

blackgrass [18] = experiment: Test Example 5: herbicidal effect by foliage application, plastic box (Table 20, symbol J); format: in vivo, blackgrass (Alopecurus myosuroides); settings: foliage application, AAH 80 g/ha, three weeks after application
How it was run: as §3

Italian ryegrass [19] = experiment: Test Example 5: herbicidal effect by foliage application, plastic box (Table 20, symbol K); format: in vivo, Italian ryegrass (Lolium multiflorum); settings: foliage application, AAH 80 g/ha, three weeks after application
How it was run: as §3

windgrass [20] = experiment: Test Example 5: herbicidal effect by foliage application, plastic box (Table 20, symbol L); format: in vivo, windgrass (Apera spica-venti); settings: foliage application, AAH 80 g/ha, three weeks after application
How it was run: as §3

velvetleaf [21] = experiment: Test Example 5: herbicidal effect by foliage application, plastic box (Table 20, symbol M); format: in vivo, velvetleaf (Abutilon theophrasti); settings: foliage application, AAH 80 g/ha, three weeks after application
How it was run: as §3

redroot pigweed [22] = experiment: Test Example 5: herbicidal effect by foliage application, plastic box (Table 20, symbol N); format: in vivo, redroot pigweed (Amaranthus retroflexus); settings: foliage application, AAH 80 g/ha, three weeks after application
How it was run: as §3

lambsquarters [23] = experiment: Test Example 5: herbicidal effect by foliage application, plastic box (Table 20, symbol O); format: in vivo, lambsquarters (Chenopodium album); settings: foliage application, AAH 80 g/ha, three weeks after application
How it was run: as §3

chickweed [24] = experiment: Test Example 5: herbicidal effect by foliage application, plastic box (Table 20, symbol P); format: in vivo, common chickweed (Stellaria media); settings: foliage application, AAH 80 g/ha, three weeks after application
How it was run: as §3

persian speedwell [25] = experiment: Test Example 5: herbicidal effect by foliage application, plastic box (Table 20, symbol R); format: in vivo, Persian speedwell (Veronica persica); settings: foliage application, AAH 80 g/ha, three weeks after application
How it was run: as §3

## COc1nn(C)c(=O)c(-c2c(-c3ccc(OC(F)(F)F)cc3)sc3ccccc23)c1O [1-162]
Barnyard grass [1]
  herbicidal effect on H (barnyard grass), rating 0-5: 4 (Herbicidal rate of 70% or more and less than 90%)
Chinese sprangletop
  herbicidal effect on D (Chinese sprangletop), rating 0-5: 3 (Herbicidal rate of 40% or more and less than 70%)
Rice flat sedge
  herbicidal effect on E (rice flat sedge), rating 0-5: 5 (Herbicidal rate of 90% or more (almost completely withered))
Southern crabgrass [2]
  F: southern crabgrass, herbicidal effect rating: 0 (Herbicidal rate of 5% or less (almost no effect))
Green foxtail [3]
  G: green foxtail, herbicidal effect rating: 0 (Herbicidal rate of 5% or less (almost no effect))
Barnyard grass [4]
  H: barnyard grass, herbicidal effect rating: 0 (Herbicidal rate of 5% or less (almost no effect))
Wild oat [5]
  I: wild oat, herbicidal effect rating: 0 (Herbicidal rate of 5% or less (almost no effect))
Blackgrass [6]
  J: blackgrass, herbicidal effect rating: 0 (Herbicidal rate of 5% or less (almost no effect))
Italian ryegrass [7]
  K: Italian ryegrass, herbicidal effect rating: 0 (Herbicidal rate of 5% or less (almost no effect))
Windgrass [8]
  L: windgrass, herbicidal effect rating: 0 (Herbicidal rate of 5% or less (almost no effect))
Velvetleaf [9]
  M: velvetleaf, herbicidal effect rating: 0 (Herbicidal rate of 5% or less (almost no effect))
Redroot pigweed [10]
  N: redroot pigweed, herbicidal effect rating: 1 (Herbicidal rate of 5% or more and less than 20%)
Lambsquarters [11]
  O: lambsquarters, herbicidal effect rating: 4 (Herbicidal rate of 70% or more and less than 90%)
Chickweed [12]
  P: chickweed, herbicidal effect rating: 2 (Herbicidal rate of 20% or more and less than 40%)
Persian speedwell [13]
  R: persian speedwell, herbicidal effect rating: 0 (Herbicidal rate of 5% or less (almost no effect))
Southern crabgrass [14]
  F: southern crabgrass, herbicidal effect: 0 (Herbicidal rate of 5% or less (almost no effect))
Green foxtail [15]
  G: green foxtail, herbicidal effect: 0 (Herbicidal rate of 5% or less (almost no effect))
Barnyard grass [16]
  H: barnyard grass, herbicidal effect: 0 (Herbicidal rate of 5% or less (almost no effect))
Wild oat [17]
  I: wild oat, herbicidal effect: 0 (Herbicidal rate of 5% or less (almost no effect))
Blackgrass [18]
  J: blackgrass, herbicidal effect: 0 (Herbicidal rate of 5% or less (almost no effect))
Italian ryegrass [19]
  K: Italian ryegrass, herbicidal effect: 0 (Herbicidal rate of 5% or less (almost no effect))
Windgrass [20]
  L: windgrass, herbicidal effect: 0 (Herbicidal rate of 5% or less (almost no effect))
Velvetleaf [21]
  M: velvetleaf, herbicidal effect: 3 (Herbicidal rate of 40% or more and less than 70%)
Redroot pigweed [22]
  N: redroot pigweed, herbicidal effect: 4 (Herbicidal rate of 70% or more and less than 90%)
Lambsquarters [23]
  O: lambsquarters, herbicidal effect: 3 (Herbicidal rate of 40% or more and less than 70%)
Chickweed [24]
  P: chickweed, herbicidal effect: 5 (Herbicidal rate of 90% or more (almost completely withered))
Persian speedwell [25]
  R: persian speedwell, herbicidal effect: 5 (Herbicidal rate of 90% or more (almost completely withered))
